Like-named read-outs stand apart in the source and are kept apart here.
What was measured:
[1] = tested on: protein-tyrosine kinases from the human genome; conditions: compared to the control slides (FIG. 9)
Description: (§1) NAPPA kinase microarrays we generated with virtually all protein-tyrosine kinases from the human genome. The coding sequence for each tyrosine kinase was clone into an expression plasmid and immobilized on the microarray surface, with one protein kinase per feature. After the microarray was expressed, any phosphorylation that occurred during the expression step was removed by a treatment with lambda phosphatase.
(§2) Unphosphorylated microarrays were then incubated with a kinase buffer (25 mM Tris-HCl (pH 7.5), 5 mM beta-glycerophosphate, 2 mM dithiothreitol (DTT), 0.1 mM Na3VO4, 10 mM MgCl2) supplemented with […] and/or kinase inhibitors (concentration ranging from 0-10 uM). The kinase autophosphorylation activity was measured through the levels of phosphorylation present in each feature and was detected by phospho-tyrosine antibody. […] Staurosporine is a pan kinase inhibitor used as a control.

DYRK2 = target: T1, DYRK2 (Homo sapiens, UniProt Q92630); test: NAPPA array kinase autophosphorylation assay; type: biochemical; conditions: DMSO = 100
T1 construct: made in house; host or cells: human cell-free coupled transcription-translation (1-Step Human Coupled IVT), on the slide
Description: (§3) Protein microarrays were generated using NAPPA (Nucleic acid programmable protein array) methodology, which permits the use of freshly expressed proteins for functional assays (FIG. 1). In NAPPA, cDNAs coding for the target of interest are cloned into an expression vector, which generates a fusion (Halo Tag, GST, etc.) to the target, and spotted onto a glass slide. Then to each spot, a HeLa cell in vitro transcription-translation reagent is added, whereby the fusion gene is transcribed into mRNA and translated. The nascent proteins are captured to the slide with antibody to the fusion partner (i.e., HaloTag-ligand, α-GST antibody) that is spotted adjacent to the DNA during the manufacture of the array. This method allows for up to thousands of protein targets to be arrayed. NAPPA microarrays can be expressed using an in vitro transcription and translation system (IVTT), and the anti-tag antibody captures newly synthesized proteins. Following expression, the microarrays were treated with phosphatase to remove any phosphorylation that occurred during the expression of the proteins.
(§4) De-phosphorylated arrays were then incubated with kinase buffer containing various concentrations of ATP and/or kinase inhibitors. The kinase activity was measured as end point assay using anti-phopho tyrosine antibody linked to cy3 as the detecting agent (FIG. 2). The data was normalized using positive control features present in each array.
as §1, §2
(§5) NAPPA arrays suitable for measuring the activity of protein kinases and evaluating the selectivity of kinase inhibitors were produced using a variation of the published protocol (Proteomics Clin Appl. 2013 June; 7(5-6):372-7.). Briefly, NAPPA printing mix was prepared with plasmid DNA coding for genes of interest, anti-flag antibody, cross-linker and poly-lysine. Samples were agitated for 90 minutes at 1200 rpm at RT and printed in quadruplicate in aminopropyltriethoxysilane coated glass slides.
(§6) Arrays were stored in an airtight container at room temperature until use.

EGFR/ERBB1 = target: T2, EGFR/ERBB1 (Homo sapiens, UniProt P00533); test: NAPPA array kinase autophosphorylation assay; type: biochemical; conditions: DMSO = 100
T2 construct: made in house; host or cells: human cell-free coupled transcription-translation (1-Step Human Coupled IVT), on the slide
Description: as §3, §4, §1, §2, §5, §6

EPHA1 = target: T3, EPHA1 (Homo sapiens, UniProt P21709); test: NAPPA array kinase autophosphorylation assay; type: biochemical; conditions: DMSO = 100
T3 construct: made in house; host or cells: human cell-free coupled transcription-translation (1-Step Human Coupled IVT), on the slide
Description: as §3, §4, §1, §2, §5, §6

EPHA3 = target: T4, EPHA3 (Homo sapiens, UniProt P29320); test: NAPPA array kinase autophosphorylation assay; type: biochemical; conditions: DMSO = 100
T4 construct: made in house; host or cells: human cell-free coupled transcription-translation (1-Step Human Coupled IVT), on the slide
Description: as §3, §4, §1, §2, §5, §6

EPHA7 = target: T5, EPHA7 (Homo sapiens, UniProt Q15375); test: NAPPA array kinase autophosphorylation assay; type: biochemical; conditions: DMSO = 100
T5 construct: made in house; host or cells: human cell-free coupled transcription-translation (1-Step Human Coupled IVT), on the slide
Description: as §3, §4, §1, §2, §5, §6

ERBB3/HER3 = target: T6, ERBB3/HER3 (Homo sapiens, UniProt P21860); test: NAPPA array kinase autophosphorylation assay; type: biochemical; conditions: DMSO = 100
T6 construct: made in house; host or cells: human cell-free coupled transcription-translation (1-Step Human Coupled IVT), on the slide
Description: as §3, §4, §1, §2, §5, §6

ERBB4/HER4 = target: T7, ERBB4/HER4 (Homo sapiens, UniProt Q15303); test: NAPPA array kinase autophosphorylation assay; type: biochemical; conditions: DMSO = 100
T7 construct: made in house; host or cells: human cell-free coupled transcription-translation (1-Step Human Coupled IVT), on the slide
Description: as §3, §4, §1, §2, §5, §6

FGFR1 = target: T8, FGFR1 (Homo sapiens, UniProt P11362); test: NAPPA array kinase autophosphorylation assay; type: biochemical; conditions: DMSO = 100
T8 construct: made in house; host or cells: human cell-free coupled transcription-translation (1-Step Human Coupled IVT), on the slide
Description: as §3, §4, §1, §2, §5, §6

FGFR4 = target: T9, FGFR4 (Homo sapiens, UniProt P22455); test: NAPPA array kinase autophosphorylation assay; type: biochemical; conditions: DMSO = 100
T9 construct: made in house; host or cells: human cell-free coupled transcription-translation (1-Step Human Coupled IVT), on the slide
Description: as §3, §4, §1, §2, §5, §6

HCK = target: T10, HCK (Homo sapiens, UniProt P08631); test: NAPPA array kinase autophosphorylation assay; type: biochemical; conditions: DMSO = 100
T10 construct: made in house; host or cells: human cell-free coupled transcription-translation (1-Step Human Coupled IVT), on the slide
Description: as §3, §4, §1, §2, §5, §6

SYK = SYK (Homo sapiens, UniProt P43405); test: NAPPA array kinase autophosphorylation assay; type: biochemical; conditions: DMSO = 100
Description: as §3, §4, §1, §2, §5, §6

TESK2 = target: T11, TESK2 (Homo sapiens, UniProt Q96S53); test: NAPPA array kinase autophosphorylation assay; type: biochemical; conditions: DMSO = 100
T11 construct: made in house; host or cells: human cell-free coupled transcription-translation (1-Step Human Coupled IVT), on the slide
Description: as §3, §4, §1, §2, §5, §6

TNK2 = target: T12, TNK2 (Homo sapiens, UniProt Q07912); test: NAPPA array kinase autophosphorylation assay; type: biochemical; conditions: DMSO = 100
T12 construct: made in house; host or cells: human cell-free coupled transcription-translation (1-Step Human Coupled IVT), on the slide
Description: as §3, §4, §1, §2, §5, §6

Tec = target: T13, Tec (Homo sapiens, UniProt P42680); test: NAPPA array kinase autophosphorylation assay; type: biochemical; conditions: DMSO = 100
T13 construct: made in house; host or cells: human cell-free coupled transcription-translation (1-Step Human Coupled IVT), on the slide
Description: as §3, §4, §1, §2, §5, §6

BCRABL = test: NAPPA array kinase autophosphorylation assay; type: biochemical, human; conditions: DMSO = 100
YES1 [2] = target: T14, YES1 (Homo sapiens, UniProt P07947); test: NAPPA array kinase autophosphorylation assay; type: biochemical; conditions: DMSO = 100
T14 construct: made in house; host or cells: human cell-free coupled transcription-translation (1-Step Human Coupled IVT), on the slide

Abl1 = Abl1 (Homo sapiens, UniProt P00519); conditions: DMSO = 100
Description: as §3, §4, §1, §2
as §5, with “Samples were agitated for 90 minutes at 1200 rpm at RT and printed in quadruplicate in aminopropyltriethoxysilane coated glass slides.” left out

BTK [3] = target: T15, BTK (Homo sapiens, UniProt Q06187); conditions: DMSO = 100
Description: as §3, §4, §1, §2
as §5, with “Samples were agitated for 90 minutes at 1200 rpm at RT and printed in quadruplicate in aminopropyltriethoxysilane coated glass slides.” left out

YES1 [4] = target: T14, YES1; test: NAPPA array kinase autophosphorylation assay; type: biochemical; conditions: Yes1 (second entry), DMSO = 100
BTK [5] = target: T15, BTK; conditions: 1 uM, radioactive ATP (FIG. 3A)
Description: (§7) First, radioactive kinase assays were performed with purified protein kinases incubated with radioactive ATP and increasing concentrations of kinase inhibitors. The kinase activity was measured through the levels of radioactive phosphorylation present in each kinase.

ERBB4 = ERBB4 (Homo sapiens, UniProt Q15303); test: radioactive kinase assay with purified kinase; type: biochemical; conditions: 1 uM, radioactive ATP (FIG. 3A)
Description: as §7

H716 = test: cell growth / viable cell count in ERBB4-overexpressing, BTK-negative cell line; type: cell-based, human
KLE = test: as above; type: cell-based, human; set-up: % Survival: dose or concentration left out as unconfirmed
H661 = test: as above; type: cell-based, human
H522 = test: as above; type: cell-based, human
HEC59 = test: as above; type: cell-based, human; set-up: % Survival: dose or concentration left out as unconfirmed
1321N1 = test: as above; type: cell-based, human
COV318 = test: as above; type: cell-based, human
H146 = test: as above; type: cell-based, human
responsive cell lines = test: cell based assays, responsive cell lines; set-up: species or system human
OVKATE = conditions: 1 uM, 7 days, Trypan blue exclusion, vs DMSO
OVSAHO = conditions: 1 uM, 7 days, Trypan blue exclusion, vs DMSO
COV434 = conditions: 1 uM, 7 days, Trypan blue exclusion, vs DMSO
[6] = 0, 1 nM, 10 nM, 100 nM, 1 uM or 10 uM for 7 days
[7] = 1 uM, 7 days, Trypan blue exclusion, vs DMSO
[8] = percentage of viable cells after a 24-hour treatment of 1 nM ibrutinib

T14 sequence (P07947 whole entry): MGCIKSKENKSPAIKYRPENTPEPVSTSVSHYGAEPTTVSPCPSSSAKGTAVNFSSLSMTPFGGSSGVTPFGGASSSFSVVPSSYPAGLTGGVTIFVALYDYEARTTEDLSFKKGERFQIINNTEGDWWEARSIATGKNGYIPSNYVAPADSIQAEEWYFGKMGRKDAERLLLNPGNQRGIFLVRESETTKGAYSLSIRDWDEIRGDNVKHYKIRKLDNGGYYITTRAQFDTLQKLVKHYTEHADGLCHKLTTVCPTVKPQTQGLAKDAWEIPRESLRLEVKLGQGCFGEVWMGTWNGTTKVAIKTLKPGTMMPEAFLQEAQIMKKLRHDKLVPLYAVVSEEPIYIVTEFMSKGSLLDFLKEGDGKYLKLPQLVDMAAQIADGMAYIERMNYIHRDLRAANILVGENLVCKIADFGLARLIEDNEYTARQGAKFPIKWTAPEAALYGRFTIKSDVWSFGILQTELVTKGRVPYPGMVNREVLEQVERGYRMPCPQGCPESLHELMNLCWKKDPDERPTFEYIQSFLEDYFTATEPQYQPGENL
T15 sequence (Q06187 whole entry): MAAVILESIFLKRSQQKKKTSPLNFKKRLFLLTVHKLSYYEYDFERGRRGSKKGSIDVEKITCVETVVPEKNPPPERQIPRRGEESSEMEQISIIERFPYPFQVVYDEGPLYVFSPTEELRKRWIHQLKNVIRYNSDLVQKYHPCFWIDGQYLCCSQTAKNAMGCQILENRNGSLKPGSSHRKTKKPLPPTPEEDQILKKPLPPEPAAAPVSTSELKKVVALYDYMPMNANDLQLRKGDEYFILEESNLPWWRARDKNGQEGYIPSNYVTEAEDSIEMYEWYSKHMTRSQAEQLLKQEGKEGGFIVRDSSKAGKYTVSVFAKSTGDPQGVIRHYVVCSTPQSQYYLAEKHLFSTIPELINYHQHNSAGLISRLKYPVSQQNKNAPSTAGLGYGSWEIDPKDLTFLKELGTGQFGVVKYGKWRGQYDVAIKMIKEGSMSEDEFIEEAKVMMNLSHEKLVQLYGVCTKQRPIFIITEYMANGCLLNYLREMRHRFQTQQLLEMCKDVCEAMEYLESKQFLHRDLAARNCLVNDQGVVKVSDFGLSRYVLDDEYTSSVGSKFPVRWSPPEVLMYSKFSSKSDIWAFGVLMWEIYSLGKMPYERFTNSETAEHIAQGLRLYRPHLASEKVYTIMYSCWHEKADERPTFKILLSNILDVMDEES
T8 sequence (P11362 22-822): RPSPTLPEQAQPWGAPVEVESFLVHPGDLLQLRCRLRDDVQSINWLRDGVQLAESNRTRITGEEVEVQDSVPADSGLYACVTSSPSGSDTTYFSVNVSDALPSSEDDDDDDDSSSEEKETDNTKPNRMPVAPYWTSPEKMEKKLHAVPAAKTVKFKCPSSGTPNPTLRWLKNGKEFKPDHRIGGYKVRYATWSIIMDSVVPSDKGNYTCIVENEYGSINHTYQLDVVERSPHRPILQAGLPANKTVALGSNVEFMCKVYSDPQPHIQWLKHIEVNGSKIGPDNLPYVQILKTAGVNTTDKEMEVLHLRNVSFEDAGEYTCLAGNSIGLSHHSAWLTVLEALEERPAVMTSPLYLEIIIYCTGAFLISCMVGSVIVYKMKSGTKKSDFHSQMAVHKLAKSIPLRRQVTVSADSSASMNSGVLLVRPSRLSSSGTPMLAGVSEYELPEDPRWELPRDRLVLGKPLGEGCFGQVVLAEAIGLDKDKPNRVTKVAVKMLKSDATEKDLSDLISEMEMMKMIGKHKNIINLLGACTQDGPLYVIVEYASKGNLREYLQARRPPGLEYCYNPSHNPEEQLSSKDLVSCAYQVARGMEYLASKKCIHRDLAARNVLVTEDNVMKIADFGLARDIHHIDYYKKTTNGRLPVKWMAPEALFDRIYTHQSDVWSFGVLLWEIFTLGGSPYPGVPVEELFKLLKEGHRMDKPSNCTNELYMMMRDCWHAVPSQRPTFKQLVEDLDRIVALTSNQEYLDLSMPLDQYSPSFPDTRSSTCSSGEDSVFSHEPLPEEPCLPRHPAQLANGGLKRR
T10 sequence (P08631 whole entry): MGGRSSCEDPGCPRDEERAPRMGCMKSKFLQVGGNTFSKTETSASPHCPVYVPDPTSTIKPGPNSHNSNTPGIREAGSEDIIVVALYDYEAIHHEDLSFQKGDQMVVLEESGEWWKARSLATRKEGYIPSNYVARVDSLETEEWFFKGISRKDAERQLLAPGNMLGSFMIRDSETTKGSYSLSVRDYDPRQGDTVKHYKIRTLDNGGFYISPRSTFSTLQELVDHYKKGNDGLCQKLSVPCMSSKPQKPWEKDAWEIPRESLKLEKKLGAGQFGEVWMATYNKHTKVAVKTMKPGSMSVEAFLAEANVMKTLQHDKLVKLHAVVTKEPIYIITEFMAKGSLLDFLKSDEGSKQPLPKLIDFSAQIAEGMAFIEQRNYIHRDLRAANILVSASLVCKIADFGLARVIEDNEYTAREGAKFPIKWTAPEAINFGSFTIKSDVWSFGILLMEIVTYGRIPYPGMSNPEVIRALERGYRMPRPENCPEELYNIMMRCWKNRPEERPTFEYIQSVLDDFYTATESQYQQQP
T3 sequence (P21709 26-976): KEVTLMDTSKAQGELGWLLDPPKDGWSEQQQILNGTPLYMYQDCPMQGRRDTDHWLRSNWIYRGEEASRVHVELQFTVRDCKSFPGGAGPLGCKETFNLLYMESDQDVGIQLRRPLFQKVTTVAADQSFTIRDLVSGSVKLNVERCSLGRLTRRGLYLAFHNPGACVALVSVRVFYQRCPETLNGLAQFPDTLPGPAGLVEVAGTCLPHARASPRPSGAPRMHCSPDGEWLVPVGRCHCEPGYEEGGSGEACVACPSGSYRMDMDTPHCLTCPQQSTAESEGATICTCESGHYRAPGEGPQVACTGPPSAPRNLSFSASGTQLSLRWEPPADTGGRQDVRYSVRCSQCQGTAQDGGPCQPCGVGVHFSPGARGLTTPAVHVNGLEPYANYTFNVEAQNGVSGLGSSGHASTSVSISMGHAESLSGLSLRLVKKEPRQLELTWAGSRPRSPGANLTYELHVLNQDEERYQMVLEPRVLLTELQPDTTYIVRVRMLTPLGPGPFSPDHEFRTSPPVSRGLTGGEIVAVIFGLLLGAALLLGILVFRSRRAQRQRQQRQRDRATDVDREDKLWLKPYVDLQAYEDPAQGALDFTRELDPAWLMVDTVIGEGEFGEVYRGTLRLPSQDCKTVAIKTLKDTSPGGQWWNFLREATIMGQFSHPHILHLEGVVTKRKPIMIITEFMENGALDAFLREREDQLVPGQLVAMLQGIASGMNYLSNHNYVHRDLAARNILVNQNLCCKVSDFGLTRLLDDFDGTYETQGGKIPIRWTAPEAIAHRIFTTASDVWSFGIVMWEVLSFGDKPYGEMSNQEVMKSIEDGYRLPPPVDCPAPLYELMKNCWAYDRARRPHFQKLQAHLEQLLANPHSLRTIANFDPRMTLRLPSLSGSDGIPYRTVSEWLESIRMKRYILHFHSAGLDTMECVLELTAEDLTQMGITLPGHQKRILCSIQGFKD
T13 sequence (P42680 whole entry): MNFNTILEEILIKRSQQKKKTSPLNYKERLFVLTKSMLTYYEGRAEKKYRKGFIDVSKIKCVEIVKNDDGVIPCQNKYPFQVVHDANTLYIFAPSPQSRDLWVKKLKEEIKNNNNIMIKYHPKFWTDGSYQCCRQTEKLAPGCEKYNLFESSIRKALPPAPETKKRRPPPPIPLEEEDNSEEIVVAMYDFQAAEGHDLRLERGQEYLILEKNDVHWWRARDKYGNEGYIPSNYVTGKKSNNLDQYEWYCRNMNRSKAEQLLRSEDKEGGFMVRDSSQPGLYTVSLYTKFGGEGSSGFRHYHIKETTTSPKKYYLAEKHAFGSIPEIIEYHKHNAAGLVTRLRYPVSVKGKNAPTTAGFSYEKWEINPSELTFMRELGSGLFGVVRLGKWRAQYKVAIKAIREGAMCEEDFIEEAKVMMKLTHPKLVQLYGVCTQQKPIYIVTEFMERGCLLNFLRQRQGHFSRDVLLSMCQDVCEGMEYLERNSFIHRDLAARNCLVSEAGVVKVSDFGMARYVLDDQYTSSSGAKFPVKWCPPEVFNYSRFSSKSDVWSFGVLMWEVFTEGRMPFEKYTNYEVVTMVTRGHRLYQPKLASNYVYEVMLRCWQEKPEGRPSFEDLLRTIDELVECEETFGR
BCRABL, sequence (P00519 229-512 limits assumed): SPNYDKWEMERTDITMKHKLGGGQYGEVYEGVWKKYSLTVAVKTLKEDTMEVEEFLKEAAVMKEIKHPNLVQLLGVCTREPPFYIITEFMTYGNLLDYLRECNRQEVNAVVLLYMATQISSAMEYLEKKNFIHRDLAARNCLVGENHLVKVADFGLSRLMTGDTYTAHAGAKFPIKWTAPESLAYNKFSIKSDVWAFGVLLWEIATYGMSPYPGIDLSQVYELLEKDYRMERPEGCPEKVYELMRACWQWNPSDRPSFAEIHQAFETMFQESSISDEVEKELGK
T1 sequence (Q92630 whole entry): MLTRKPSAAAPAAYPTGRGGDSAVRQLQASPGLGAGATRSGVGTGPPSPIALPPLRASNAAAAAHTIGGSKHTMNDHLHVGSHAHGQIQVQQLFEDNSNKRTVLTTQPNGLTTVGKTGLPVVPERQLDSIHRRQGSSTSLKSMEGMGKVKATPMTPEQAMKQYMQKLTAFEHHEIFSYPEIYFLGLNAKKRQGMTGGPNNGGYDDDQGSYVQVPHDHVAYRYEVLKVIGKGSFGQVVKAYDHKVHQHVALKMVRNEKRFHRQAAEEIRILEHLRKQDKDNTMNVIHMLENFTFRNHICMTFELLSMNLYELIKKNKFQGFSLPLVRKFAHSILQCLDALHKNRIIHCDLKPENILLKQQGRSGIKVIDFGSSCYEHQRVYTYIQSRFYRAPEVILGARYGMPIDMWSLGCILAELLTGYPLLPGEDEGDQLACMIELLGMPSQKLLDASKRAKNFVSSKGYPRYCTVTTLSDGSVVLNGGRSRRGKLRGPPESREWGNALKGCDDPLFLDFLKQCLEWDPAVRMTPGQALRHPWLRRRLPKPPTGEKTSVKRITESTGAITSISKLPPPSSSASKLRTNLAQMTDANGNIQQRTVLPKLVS

## CN[C@@H]1C[C@H]2O[C@@](C)([C@@H]1OC)n1c3ccccc3c3c4c(c5c6ccccc6n2c5c31)C(=O)NC4 [Staurosporine]
[1]
  overall phosphorylation signal of the microarrays: drastically reduce

## Ibrutinib
DYRK2; 0.1 uM Ibrutinib
  kinase activity (%): 97.3%
DYRK2; 1 uM Ibrutinib
  kinase activity (%): 82.3%
EGFR/ERBB1; 0.1 uM Ibrutinib
  kinase activity (%): 81.2%
EGFR/ERBB1; 1 uM Ibrutinib
  kinase activity (%): 89.7%
EPHA1; 0.1 uM Ibrutinib
  kinase activity (%): 87.2%
EPHA1; 1 uM Ibrutinib
  kinase activity (%): 99.1%
EPHA3; 0.1 uM Ibrutinib
  kinase activity (%): 89.1%
EPHA3; 1 uM Ibrutinib
  kinase activity (%): 101.3%
EPHA7; 0.1 uM Ibrutinib
  kinase activity (%): 92.3%
EPHA7; 1 uM Ibrutinib
  kinase activity (%): 94.9%
ERBB3/HER3; 0.1 uM Ibrutinib
  kinase activity (%): 100.0%
ERBB3/HER3; 1 uM Ibrutinib
  kinase activity (%): 206.1%
ERBB4/HER4; 0.1 uM Ibrutinib
  kinase activity (%): 67.1%
ERBB4/HER4; 1 uM Ibrutinib
  kinase activity (%): 44.1%
FGFR1; 0.1 uM Ibrutinib
  kinase activity (%): 98.8%
FGFR1; 1 uM Ibrutinib
  kinase activity (%): 105.8%
FGFR4; 0.1 uM Ibrutinib
  kinase activity (%): 81.5%
FGFR4; 1 uM Ibrutinib
  kinase activity (%): 99.1%
HCK; 0.1 uM Ibrutinib
  kinase activity (%): 102.1%
HCK; 1 uM Ibrutinib
  kinase activity (%): 105.0%
SYK; 0.1 uM Ibrutinib
  kinase activity (%): 90.5%
SYK; 1 uM Ibrutinib
  kinase activity (%): 109.7%
TESK2; 0.1 uM Ibrutinib
  kinase activity (%): 85.8%
TESK2; 1 uM Ibrutinib
  kinase activity (%): 83.5%
TNK2; 0.1 uM Ibrutinib
  kinase activity (%): 99.9%
TNK2; 1 uM Ibrutinib
  kinase activity (%): 86.9%
Tec; 0.1 uM Ibrutinib
  kinase activity (%): 68.7%
Tec; 1 uM Ibrutinib
  kinase activity (%): 62.0%
BCRABL; 0.1 uM Ibrutinib
  kinase activity (%): 92.0%
BCRABL; 1 uM Ibrutinib
  kinase activity (%): 93.1%
YES1 [2]; 0.1 uM Ibrutinib
  kinase activity (%): 99.3%
YES1 [2]; 1 uM Ibrutinib
  kinase activity (%): 90.9%
Abl1; 0.1 uM Ibrutinib
  kinase activity (%): 101.5%
Abl1; 1 uM Ibrutinib
  kinase activity (%): 104.3%
BTK [3]; 0.1 uM Ibrutinib
  kinase activity (%): 38.3%
BTK [3]; 1 uM Ibrutinib
  kinase activity (%): 5.5%
YES1 [4]; 0.1 uM Ibrutinib
  kinase activity (%): 101.6%
YES1 [4]; 1 uM Ibrutinib
  kinase activity (%): 97.6%
BTK [5]
  activity inhibited: more than 80%
ERBB4
  activity inhibited: more than 80%
H716; [6]
  sensitivity of cell line: very sensitive
H716; [7]
  growth inhibition rate: 75%
H716; [8]
  % Survival: 25.5%
KLE; [6]
  sensitivity of cell line: very sensitive
KLE; [7]
  growth inhibition rate: 73%
KLE; percentage of viable cells after ibrutinib
  % Survival: 27.2%
H661; [6]
  sensitivity of cell line: very sensitive
H661; [7]
  growth inhibition rate: 72%
H661; [8]
  % Survival: 28.2%
H522; [6]
  sensitivity of cell line: very sensitive
H522; [7]
  growth inhibition rate: 60%
H522; [8]
  % Survival: 41.0%
HEC59; HEC59, 1 uM, 7 days, Trypan blue exclusion, vs DMSO
  growth inhibition rate: 31%
HEC59; HEC59, percentage of viable cells
  % Survival: 68.8%
HEC59; Hec59, 0, 1 nM, 10 nM, 100 nM, 1 uM or 10 uM for 7 days
  sensitivity of cell line: apparently resistant
1321N1; [6]
  sensitivity of cell line: apparently resistant
1321N1; [7]
  growth inhibition rate: 10%
1321N1; [8]
  % Survival: 89.7%
COV318; [6]
  sensitivity of cell line: apparently resistant
COV318; [7]
  growth inhibition rate: 8%
COV318; [8]
  % Survival: 91.5%
H146; H146, 1 uM, 7 days, Trypan blue exclusion, vs DMSO
  growth inhibition rate: 0%
H146; H146, percentage of viable cells after a 24-hour treatment of 1 nM ibrutinib
  % Survival: 100.0%
H146; H416, 0, 1 nM, 10 nM, 100 nM, 1 uM or 10 uM for 7 days
  sensitivity of cell line: apparently resistant
Responsive cell lines
  inhibition in the responsive cell lines: 60-75%
OVKATE
  growth inhibition rate: 45%
OVSAHO
  growth inhibition rate: 37%
COV434
  growth inhibition rate: 15%
